In PMC6749524, “Identification of New Antifungal Agents Targeting Chitin Synthesis by a Chemical-Genetic Method” (Molecules, 2019):

Assays:
C. albicans ATCC10231 = experiment: Checkerboard assay, synergy with caspofungin; type: cell-based; conditions: Candida albicans; for MIC of Caspofungin Combination: MIC of caspofungin in combination with the named compound; for MIC Combination: MIC of the compound in combination with caspofungin
Protocol: (§1) Fresh cell cultures of WT S. cerevisiae and C. albicans ATCC10231 (OD600 = 0.8) were diluted to 10^4 CFU/mL in YPD medium. The in vitro synergistic and antagonistic effects of compounds were determined using checkerboard assay. MIC endpoints were defined as the lowest concentration of drugs, causing 80% decrease in viability compared to the drug-free control (MIC80). The calculation and interpretation of the fractional inhibitory concentration index (FICI) were carried out by referring to the document standards. FICI = (MIC of drug A in combination) / (MIC of drug A alone) + (MIC of drug B in combination) / (MIC of drug B alone). FIC ≤0.5 was considered as a synergistic effect, and >2 was considered as antagonism.

WT S. cerevisiae = experiment: Checkerboard assay, synergy with caspofungin; type: cell-based; conditions: S. cerevisiae, MIC80; for MIC of Caspofungin Combination: MIC of caspofungin in combination with the named compound; for MIC Combination: MIC of the compound in combination with caspofungin
Protocol: as §1

[1] = system: chitin level in C. albicans; experiment: CFW staining of chitin, fluorescence microscopy; type: cell-based, Candida albicans; conditions: IMB-D10 12.5 μg/mL or IMB-F4 25 μg/mL, 5 hours
Protocol: WT S. cerevisiae and C. albicans ATCC10231 were grown to 10^5 CFU/mL in YPD medium and then treated with IMB-D10 (12.5 or 25 μg/mL), IMB-F4 (12.5 or 25 μg/mL), or 0.25% DMSO for 3 and 5 hours at 30 ℃. Cells were collected by centrifugation at 1500 g for 5 min and resuspended in PBS. Some cells were examined using 100 × / 1.25 oil immersion objective (DM2500, Leica) and analyzed by Leica las. Some cells were stained with 100 μg/mL Calcofluor White M2R (CFW, Sigma-Aldrich, St. Louis, MO, USA for 3 min and washed three times with water. Then, the cells were examined under the UV light for fluorescent signals.

[2] = system: human embryonic kidney 293 cells; experiment: Cytotoxicity assay (MTT); type: cell-based; conditions: concentration as high as 100 μg/mL, 48 hours
Protocol: (§2) Human embryonic kidney 293 cells and Hela cells were seeded in triplicate in 96-well plates and grown to log-phase in DMEM medium with 10% FBS. Then, the medium was removed, and the cells were incubated with compounds at various concentrations ranging from 3.125 to 100 μg/mL in DMEM medium without FBS. After incubation for 48 hours, MTT reagent was added for further incubation for 4 hours. After we added 50 μL of DMSO, the absorbance was measured at 570 nm. The IC50 values were calculated based on a concentration-response curve.

Hela cells = experiment: Cytotoxicity assay (MTT); type: cell-based, human; conditions: concentration as high as 100 μg/mL, 48 hours
Protocol: as §2

[3] = system: Escherichia coli ATCC 25922; experiment: Growth inhibition of bacteria; type: cell-based; conditions: Escherichia coli ATCC 25922, at 100 μg/mL
Chs1 = experiment: iTRAQ protein level of chitin synthase; type: cell-based, S. cerevisiae; conditions: 25 μg/mL, 16 hours
Chs1, sequence (P08004 whole entry): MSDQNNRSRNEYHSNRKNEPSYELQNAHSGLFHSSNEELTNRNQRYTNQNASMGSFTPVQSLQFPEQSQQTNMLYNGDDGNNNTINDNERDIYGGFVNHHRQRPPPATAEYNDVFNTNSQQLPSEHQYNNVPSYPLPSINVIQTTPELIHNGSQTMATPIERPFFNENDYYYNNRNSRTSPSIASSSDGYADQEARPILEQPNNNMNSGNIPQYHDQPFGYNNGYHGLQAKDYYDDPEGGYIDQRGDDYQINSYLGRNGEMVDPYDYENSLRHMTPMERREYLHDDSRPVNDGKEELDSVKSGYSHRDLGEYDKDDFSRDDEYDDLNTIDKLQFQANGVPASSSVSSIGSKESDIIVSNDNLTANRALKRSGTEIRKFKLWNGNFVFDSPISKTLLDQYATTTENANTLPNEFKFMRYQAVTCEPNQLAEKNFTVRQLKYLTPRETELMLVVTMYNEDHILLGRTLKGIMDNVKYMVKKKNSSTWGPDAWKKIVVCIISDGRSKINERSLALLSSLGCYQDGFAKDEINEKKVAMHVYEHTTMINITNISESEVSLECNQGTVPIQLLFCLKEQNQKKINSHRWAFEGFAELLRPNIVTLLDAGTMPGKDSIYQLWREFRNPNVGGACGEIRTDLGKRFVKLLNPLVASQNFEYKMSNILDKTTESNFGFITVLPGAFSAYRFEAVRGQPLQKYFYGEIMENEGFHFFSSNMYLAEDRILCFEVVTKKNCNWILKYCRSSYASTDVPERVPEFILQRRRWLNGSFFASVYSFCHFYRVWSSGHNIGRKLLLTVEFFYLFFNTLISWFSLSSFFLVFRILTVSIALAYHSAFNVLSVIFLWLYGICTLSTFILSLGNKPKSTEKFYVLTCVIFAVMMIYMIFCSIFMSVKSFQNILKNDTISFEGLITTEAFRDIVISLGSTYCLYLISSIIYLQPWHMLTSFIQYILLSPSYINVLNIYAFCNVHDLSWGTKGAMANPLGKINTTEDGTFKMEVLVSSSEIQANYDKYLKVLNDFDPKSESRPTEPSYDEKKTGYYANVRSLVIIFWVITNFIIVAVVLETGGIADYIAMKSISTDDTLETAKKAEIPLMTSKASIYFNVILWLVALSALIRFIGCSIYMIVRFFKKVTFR
Protocol: (§3) WT cells were grown to 10^5 CFU/mL in YPD medium and then treated with 25 μg/mL compounds or 0.25% DMSO for 16 hours at 30 °C. The cells were collected by centrifugation at 1500 g for 5 min and then stored at −80 °C. The frozen samples were grounded to a fine powder with liquid nitrogen and then transferred to an Eppendorf tube with phenol extraction buffer containing 1 mM Phenylmethanesulfonyl fluoride (PMSF). The samples were lysed with sonication, and proteins were extracted with phenol and then precipitated with ammonium acetate/methanol. The methanol was excluded by acetone, and the precipitates were collected by centrifugation at 12,000 g for 10 min at 4 °C. The precipitates were dried at room temperature for 3 min and dissolved in SDS lysis buffer for 2 hours. The samples were further centrifuged at 12,000 g for 10 min, and the collected supernatants were centrifuged again to remove precipitation completely. After the determination of protein concentration using Pierce^TM BCA Protein Assay kit (Thermo Scientific, Rockford, IL, USA), the protein samples were aliquoted for storage at −80 °C.
(§4) The Filter Aided Sample Preparation (FASP) digestion was performed according to a universal sample preparation method for proteome analysis. Peptides were labeled by iTRAQ using iTRAQ Reagents Multiplex Kit (AB SCIEX, Framingham, MA, USA) and then were fractionated by SCX chromatography using the AKTA Purifier system (GE Healthcare, Stockholm, Sweden). LC-MS/MS analysis was performed on Nano LC-1D plus (Eksigent, San Francisco, CA, USA) that was coupled to Triple TOF 6600 spectrometer (AB SCIEX, Framingham, MA, USA) for 50 min. The mass spectrometer was operated in positive ion mode. The MS/MS data were analyzed for protein identification and quantification using ProteinPilot software (v.5). The local false discovery rate was estimated with the integrated PSPEP tool in the ProteinPilot Software to be 1% after searching against a decoy concatenated UniProt S. cerevisiae protein database. For a protein showing differential expression, it must have been identified and quantified with at least one significant peptide, and the p-values of the proteins quantitation should be less than 0.05 and fold change ≥1.5.

Chs2 = experiment: iTRAQ protein level of chitin synthase; type: cell-based, S. cerevisiae; conditions: 25 μg/mL, 16 hours
Chs2, sequence (P14180 whole entry): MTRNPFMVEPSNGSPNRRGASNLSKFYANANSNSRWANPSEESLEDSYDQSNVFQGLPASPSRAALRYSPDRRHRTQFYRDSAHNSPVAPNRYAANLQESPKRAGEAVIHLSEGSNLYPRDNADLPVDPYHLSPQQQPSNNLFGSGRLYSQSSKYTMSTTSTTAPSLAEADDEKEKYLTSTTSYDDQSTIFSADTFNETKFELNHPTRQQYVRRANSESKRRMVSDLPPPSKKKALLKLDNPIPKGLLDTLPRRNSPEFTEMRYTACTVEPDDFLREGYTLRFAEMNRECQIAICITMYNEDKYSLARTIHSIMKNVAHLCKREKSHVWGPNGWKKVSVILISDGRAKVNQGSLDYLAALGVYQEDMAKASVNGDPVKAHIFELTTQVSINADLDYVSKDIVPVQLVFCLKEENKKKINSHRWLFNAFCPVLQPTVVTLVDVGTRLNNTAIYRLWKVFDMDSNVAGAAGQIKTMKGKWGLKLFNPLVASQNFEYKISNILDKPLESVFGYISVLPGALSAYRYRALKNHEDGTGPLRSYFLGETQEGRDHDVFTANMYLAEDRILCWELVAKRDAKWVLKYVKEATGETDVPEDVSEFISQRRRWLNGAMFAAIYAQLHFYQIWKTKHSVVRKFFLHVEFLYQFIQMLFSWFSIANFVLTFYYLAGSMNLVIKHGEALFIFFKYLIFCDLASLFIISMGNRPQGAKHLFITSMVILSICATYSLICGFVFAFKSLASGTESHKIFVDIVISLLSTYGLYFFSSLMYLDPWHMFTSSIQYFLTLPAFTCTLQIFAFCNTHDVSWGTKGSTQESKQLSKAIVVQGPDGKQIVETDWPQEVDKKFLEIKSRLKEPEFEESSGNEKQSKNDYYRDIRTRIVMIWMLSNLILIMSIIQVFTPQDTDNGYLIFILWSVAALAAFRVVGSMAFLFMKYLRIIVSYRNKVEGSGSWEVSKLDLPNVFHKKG
Protocol: as §3, §4

Chs3 = experiment: iTRAQ protein level of chitin synthase; type: cell-based, S. cerevisiae; conditions: 25 μg/mL, 16 hours
Chs3, sequence (P29465 whole entry): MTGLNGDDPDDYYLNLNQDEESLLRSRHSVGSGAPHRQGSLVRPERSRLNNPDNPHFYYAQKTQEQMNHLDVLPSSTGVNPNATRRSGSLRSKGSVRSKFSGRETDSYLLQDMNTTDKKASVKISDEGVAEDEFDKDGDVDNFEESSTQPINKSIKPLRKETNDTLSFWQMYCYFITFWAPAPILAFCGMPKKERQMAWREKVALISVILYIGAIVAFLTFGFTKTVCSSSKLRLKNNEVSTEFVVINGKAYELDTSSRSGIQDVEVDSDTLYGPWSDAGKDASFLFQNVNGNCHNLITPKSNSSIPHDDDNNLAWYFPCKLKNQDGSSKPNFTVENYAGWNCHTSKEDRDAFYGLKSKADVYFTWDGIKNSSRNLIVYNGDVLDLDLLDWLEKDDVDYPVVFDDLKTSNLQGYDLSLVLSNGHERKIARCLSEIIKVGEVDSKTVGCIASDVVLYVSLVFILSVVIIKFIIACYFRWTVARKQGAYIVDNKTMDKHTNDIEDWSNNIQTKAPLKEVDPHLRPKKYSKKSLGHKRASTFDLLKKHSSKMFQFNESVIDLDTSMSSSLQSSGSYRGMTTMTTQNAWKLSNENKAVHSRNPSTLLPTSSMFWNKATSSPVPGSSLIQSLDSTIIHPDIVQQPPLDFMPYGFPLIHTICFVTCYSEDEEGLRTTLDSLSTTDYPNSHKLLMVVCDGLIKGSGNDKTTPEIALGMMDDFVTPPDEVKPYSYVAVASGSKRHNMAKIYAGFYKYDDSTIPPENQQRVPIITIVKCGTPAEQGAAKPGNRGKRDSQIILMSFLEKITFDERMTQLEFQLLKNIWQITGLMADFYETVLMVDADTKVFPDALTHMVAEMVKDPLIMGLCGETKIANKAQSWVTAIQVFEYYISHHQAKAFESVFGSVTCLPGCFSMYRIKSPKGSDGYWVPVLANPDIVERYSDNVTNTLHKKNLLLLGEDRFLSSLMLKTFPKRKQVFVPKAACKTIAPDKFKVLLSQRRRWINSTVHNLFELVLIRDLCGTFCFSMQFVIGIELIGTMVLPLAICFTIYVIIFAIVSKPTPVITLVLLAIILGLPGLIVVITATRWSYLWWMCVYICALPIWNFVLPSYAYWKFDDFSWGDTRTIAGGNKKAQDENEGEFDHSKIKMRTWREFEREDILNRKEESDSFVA
Protocol: as §3, §4

COc1cc(OC)cc(C(=O)N(CCn2ccnc2)c2nc3ccc(OC)cc3s2)c1 [IMB-F4, N-(2-(1H-imidazol-1-yl)ethyl)-3,5-dimethoxy-N-(6-methoxybenzo[d]thiazol-2-yl)benzamide]
MIC (C. albicans ATCC10231; ATCC10231, compound alone, MIC80, read-out: MIC Alone): > 100 µg/mL | MIC of Caspofungin Combination (C. albicans ATCC10231; MIC80): 0.003125 µg/mL | MIC Combination (C. albicans ATCC10231; MIC80): 12.5 µg/mL | FICI (C. albicans ATCC10231; fractional inhibitory concentration index with caspofungin, ≤0.5 synergistic): <0.5 | MIC of Caspofungin Combination (WT S. cerevisiae): 0.0075 µg/mL | MIC Combination (WT S. cerevisiae): 25 µg/mL | MIC (WT S. cerevisiae; Saccharomyces cerevisiae, compound alone, read-out: MIC Alone): > 100 µg/mL | chitin level by CFW staining [1]: decreased chitin level | growth inhibition (toxicity) [2]: No growth inhibition | growth inhibition (toxicity) (Hela cells): No growth inhibition | growth inhibition [3]: did not inhibit the growth | relative abundance of Chs1 compared with cells treated with DMSO (Chs1): remained similar | relative abundance of Chs2 compared with cells treated with DMSO (Chs2): remained similar | relative abundance of Chs3 compared with cells treated with DMSO (Chs3): remained similar

N-(2-(diethylamino) ethyl)-N-(7-hydroxy-4-methoxybenzo[d]thiazol -2-yl)-2-oxo-2H-chromene-3-carboxamide [IMB-D10]
MIC of Caspofungin Combination (C. albicans ATCC10231; MIC80): 0.00625 µg/mL | MIC Combination (C. albicans ATCC10231; MIC80): 12.5 µg/mL | MIC Alone (C. albicans ATCC10231; compound alone, MIC80): 100 µg/mL | MIC of Caspofungin Combination (WT S. cerevisiae): 0.0075 µg/mL | MIC Combination (WT S. cerevisiae): 12.5 µg/mL | MIC Alone (WT S. cerevisiae; compound alone): 50 µg/mL | chitin level by CFW staining [1]: decreased chitin level | growth inhibition [3]: did not inhibit the growth | relative abundance of Chs1 compared with cells treated with DMSO (Chs1): 22 ± 5.10% | relative abundance of Chs2 compared with cells treated with DMSO (Chs2): 21.33 ± 6.18% | relative abundance of Chs3 compared with cells treated with DMSO (Chs3): 18.33 ± 1.89%
